Laboratory results from ChEMBL document CHEMBL1201862, “PubChem BioAssay data set” (2004).
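Five concentrations, 48 hours, 96-well plates. GI50: concentration for 50% inhibition of growth.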 Calls of active or inactive are those of the source. Cut-off read from the data, not from the text of the source: active = GI50 up to about 1.1 µM and inactive = higher.

Tests used:
Experiment in all cases: NCI-60 cell line screen, 48 h
786-0 = test system: 786-0
A498 = test system: A498
A549 = test system: A549
ACHN = test system: ACHN
CAKI-1 = test system: CAKI-1
CCRF-CEM = test system: CCRF-CEM
COLO 205 = test system: COLO 205
DLD-1 = test system: DLD-1
DMS-114 = test system: DMS-114
DMS-273 = test system: DMS-273
EKVX = test system: EKVX
HCC 2998 = test system: HCC 2998
HCT-116 = test system: HCT-116
HCT-15 = test system: HCT-15
HL-60 = test system: HL-60
HOP-62 = test system: HOP-62
HOP-92 = test system: HOP-92
HT-29 = test system: HT-29
IGROV-1 = test system: IGROV-1
K562 = test system: K562
KM-20L2 = test system: KM-20L2
KM12 = test system: KM12
LOX IMVI = test system: LOX IMVI
LXFL 529 = test system: LXFL 529
M14 = test system: M14
M19-MEL = test system: M19-MEL
Malme-3M = test system: Malme-3M
NCI-H226 = test system: NCI-H226
NCI-H23 = test system: NCI-H23
NCI-H460 = test system: NCI-H460
NCI-H522 = test system: NCI-H522
OVCAR-3 = test system: OVCAR-3
OVCAR-4 = test system: OVCAR-4
OVCAR-5 = test system: OVCAR-5
OVCAR-8 = test system: OVCAR-8
RPMI-8226 = test system: RPMI-8226
RXF 393 = test system: RXF 393
SF-268 = test system: SF-268
SF-295 = test system: SF-295
SF-539 = test system: SF-539
SK-MEL-28 = test system: SK-MEL-28
SK-MEL-5 = test system: SK-MEL-5
SK-OV-3 = test system: SK-OV-3
SN12C = test system: SN12C
SNB-19 = test system: SNB-19
SNB-75 = test system: SNB-75
SNB-78 = test system: SNB-78
SR = test system: SR
SW-620 = test system: SW-620
TK-10 = test system: TK-10
U-251 = test system: U-251
UACC-257 = test system: UACC-257
UACC-62 = test system: UACC-62
UO-31 = test system: UO-31
XF498 = test system: XF498
MOLT-4 = test system: MOLT-4

With `CCOC(=O)C1N(S(=O)(=O)c2ccc(C)cc2)CCC12c1ccccc1NC2c1ccc(OC)c(OC)c1` (stereo not drawn) as the compound, how does the GI50 (786-0) read?
The GI50 was > 100 µM (inactive).

And the GI50 (A498)?
Its GI50 is > 100 µM (inactive).

And the GI50 (A549)?
The GI50 was > 100 µM (inactive).

And the GI50 (ACHN)?
Its GI50 is > 100 µM (inactive).

And the GI50 (CAKI-1)?
Its GI50 is > 100 µM (inactive).

And the GI50 (CCRF-CEM)?
The GI50 was 80.5 µM (inactive).

And the GI50 (COLO 205)?
Its GI50 is > 100 µM (inactive).

And the GI50 (DLD-1)?
Its GI50 is > 100 µM (inactive).

What about the GI50 (DMS-114) of the same compound?
The GI50 was > 100 µM (inactive).

What about the GI50 (DMS-273) of the same compound?
Its GI50 is > 100 µM (inactive).

What about the GI50 (EKVX) of the same compound?
Its GI50 is > 100 µM (inactive).

And the GI50 (HCC 2998)?
The GI50 was > 100 µM (inactive).

What about the GI50 (HCT-116) of the same compound?
The GI50 was 60.7 µM (inactive).

What about the GI50 (HCT-15) of the same compound?
Its GI50 is greater than 100 µM.

What about the GI50 (HL-60) of the same compound?
Its GI50 is 27.7 µM (inactive).

And the GI50 (HOP-62)?
Its GI50 is > 100 µM (inactive).

And the GI50 (HOP-92)?
The GI50 was 10.7 µM (inactive).

And the GI50 (HT-29)?
The GI50 was > 100 µM (inactive).

And the GI50 (IGROV-1)?
Its GI50 is 14.6 µM (inactive).

And the GI50 (K562)?
Its GI50 is 34.2 µM (inactive).

What about the GI50 (KM-20L2) of the same compound?
The GI50 was > 100 µM (inactive).

What about the GI50 (KM12) of the same compound?
Its GI50 is > 100 µM (inactive).

And the GI50 (LOX IMVI)?
Its GI50 is > 100 µM (inactive).

What about the GI50 (LXFL 529) of the same compound?
Its GI50 is > 100 µM (inactive).

And the GI50 (M14)?
Its GI50 is > 100 µM (inactive).

And the GI50 (M19-MEL)?
Its GI50 is > 100 µM (inactive).

And the GI50 (Malme-3M)?
The GI50 was > 100 µM (inactive).

And the GI50 (NCI-H226)?
Its GI50 is > 100 µM (inactive).

What about the GI50 (NCI-H23) of the same compound?
Its GI50 is > 100 µM (inactive).

And the GI50 (NCI-H460)?
Its GI50 is > 100 µM (inactive).

And the GI50 (NCI-H522)?
The GI50 was > 100 µM (inactive).

And the GI50 (OVCAR-3)?
The GI50 was > 100 µM (inactive).

What about the GI50 (OVCAR-4) of the same compound?
The GI50 was > 100 µM (inactive).

And the GI50 (OVCAR-5)?
Its GI50 is > 100 µM (inactive).

And the GI50 (OVCAR-8)?
The GI50 was > 100 µM (inactive).

What about the GI50 (RPMI-8226) of the same compound?
Its GI50 is 13.9 µM (inactive).

What about the GI50 (RXF 393) of the same compound?
Its GI50 is > 100 µM (inactive).

And the GI50 (SF-268)?
The GI50 was > 100 µM (inactive).

What about the GI50 (SF-295) of the same compound?
Its GI50 is > 100 µM (inactive).

What about the GI50 (SF-539) of the same compound?
Its GI50 is > 100 µM (inactive).

What about the GI50 (SK-MEL-28) of the same compound?
The GI50 was > 100 µM (inactive).

What about the GI50 (SK-MEL-5) of the same compound?
Its GI50 is > 100 µM (inactive).

And the GI50 (SK-OV-3)?
The GI50 was > 100 µM (inactive).

What about the GI50 (SN12C) of the same compound?
The GI50 was > 100 µM (inactive).

And the GI50 (SNB-19)?
Its GI50 is > 100 µM (inactive).

And the GI50 (SNB-75)?
Its GI50 is > 100 µM (inactive).

What about the GI50 (SNB-78) of the same compound?
The GI50 was > 100 µM (inactive).

What about the GI50 (SR) of the same compound?
Its GI50 is 22 µM (inactive).

What about the GI50 (SW-620) of the same compound?
Its GI50 is 27.4 µM (inactive).

What about the GI50 (TK-10) of the same compound?
The GI50 was > 100 µM (inactive).

And the GI50 (U-251)?
Its GI50 is > 100 µM (inactive).

What about the GI50 (UACC-257) of the same compound?
Its GI50 is > 100 µM (inactive).

And the GI50 (UACC-62)?
The GI50 was > 100 µM (inactive).

And the GI50 (UO-31)?
Its GI50 is > 100 µM (inactive).

And the GI50 (XF498)?
Its GI50 is 79.8 µM (inactive).

How did the GI50 (786-0) turn out when `COC(=O)c1nn(-c2ccccc2)c(=O)cc1N=[N+]=[N-]` was run?
The GI50 was > 100 µM (inactive).

And the GI50 (A498)?
Its GI50 is 94 µM (inactive).

What about the GI50 (A549) of the same compound?
Its GI50 is > 100 µM (inactive).

What about the GI50 (ACHN) of the same compound?
The GI50 was > 100 µM (inactive).

What about the GI50 (CAKI-1) of the same compound?
The GI50 was > 100 µM (inactive).

What about the GI50 (CCRF-CEM) of the same compound?
Its GI50 is > 100 µM (inactive).

And the GI50 (COLO 205)?
Its GI50 is 99.5 µM (inactive).

What about the GI50 (DMS-114) of the same compound?
The GI50 was > 100 µM (inactive).

And the GI50 (DMS-273)?
The GI50 was > 100 µM (inactive).

What about the GI50 (EKVX) of the same compound?
The GI50 was > 100 µM (inactive).

What about the GI50 (HCC 2998) of the same compound?
The GI50 was > 100 µM (inactive).

And the GI50 (HCT-116)?
The GI50 was > 100 µM (inactive).

What about the GI50 (HCT-15) of the same compound?
The GI50 was greater than 100 µM.

And the GI50 (HL-60)?
Its GI50 is > 100 µM (inactive).

What about the GI50 (HOP-62) of the same compound?
Its GI50 is > 100 µM (inactive).

What about the GI50 (HT-29) of the same compound?
Its GI50 is > 100 µM (inactive).

And the GI50 (IGROV-1)?
Its GI50 is > 100 µM (inactive).

And the GI50 (K562)?
Its GI50 is > 100 µM (inactive).

And the GI50 (KM-20L2)?
The GI50 was > 100 µM (inactive).

What about the GI50 (KM12) of the same compound?
The GI50 was > 100 µM (inactive).

And the GI50 (LOX IMVI)?
Its GI50 is > 100 µM (inactive).

What about the GI50 (LXFL 529) of the same compound?
Its GI50 is > 100 µM (inactive).

And the GI50 (M14)?
The GI50 was > 100 µM (inactive).

What about the GI50 (M19-MEL) of the same compound?
Its GI50 is > 100 µM (inactive).

And the GI50 (MOLT-4)?
The GI50 was > 100 µM (inactive).

What about the GI50 (Malme-3M) of the same compound?
The GI50 was > 100 µM (inactive).

What about the GI50 (NCI-H226) of the same compound?
Its GI50 is > 100 µM (inactive).

And the GI50 (NCI-H23)?
Its GI50 is > 100 µM (inactive).

And the GI50 (NCI-H460)?
Its GI50 is > 100 µM (inactive).

What about the GI50 (NCI-H522) of the same compound?
The GI50 was > 100 µM (inactive).

And the GI50 (OVCAR-3)?
Its GI50 is > 100 µM (inactive).

What about the GI50 (OVCAR-4) of the same compound?
The GI50 was > 100 µM (inactive).

And the GI50 (OVCAR-5)?
The GI50 was > 100 µM (inactive).

And the GI50 (OVCAR-8)?
The GI50 was > 100 µM (inactive).

And the GI50 (RPMI-8226)?
The GI50 was > 100 µM (inactive).

And the GI50 (RXF 393)?
The GI50 was > 100 µM (inactive).

And the GI50 (SF-268)?
Its GI50 is > 100 µM (inactive).

What about the GI50 (SF-295) of the same compound?
The GI50 was > 100 µM (inactive).

What about the GI50 (SF-539) of the same compound?
The GI50 was > 100 µM (inactive).

And the GI50 (SK-MEL-28)?
Its GI50 is > 100 µM (inactive).

And the GI50 (SK-MEL-5)?
The GI50 was > 100 µM (inactive).

What about the GI50 (SK-OV-3) of the same compound?
Its GI50 is > 100 µM (inactive).

And the GI50 (SN12C)?
Its GI50 is > 100 µM (inactive).

What about the GI50 (SNB-19) of the same compound?
Its GI50 is > 100 µM (inactive).

And the GI50 (SNB-78)?
Its GI50 is > 100 µM (inactive).

And the GI50 (SR)?
The GI50 was > 100 µM (inactive).

And the GI50 (SW-620)?
Its GI50 is > 100 µM (inactive).

What about the GI50 (TK-10) of the same compound?
Its GI50 is > 100 µM (inactive).

And the GI50 (U-251)?
The GI50 was > 100 µM (inactive).

What about the GI50 (UACC-257) of the same compound?
Its GI50 is > 100 µM (inactive).

And the GI50 (UACC-62)?
Its GI50 is > 100 µM (inactive).

What about the GI50 (UO-31) of the same compound?
Its GI50 is > 100 µM (inactive).

What about the GI50 (XF498) of the same compound?
The GI50 was > 100 µM (inactive).
